From US5969115A, “Bisazo dyes and their preparation and use” (Ilford Imaging Switzerland GMBH, priority 1997, dated 1999)

Tests used:
Assay type in all cases: physicochemical
[1] = Light fastness of printed samples (density loss after xenon lamp irradiation); settings: for Density loss in %: xenon lamp, total illumination 20 kJoule/cm^2
Procedure: (§1) The present invention, as far as it relates to inks, is further illustrated by the following examples using dyes according to our invention described in Tables 1 and 2 and dyes representing the state of the art described in Tables 3 and 4. 100 g of each ink were prepared by heating the necessary amount of dye (3-7 g), glycerol (5 g), tetraethylenglycol (1.1 g). and a biocide solution (Promexal X50, available from Zeneca, Manchester, England) (1.2 g) together with water at a temperature of 50° C. under stirring for one hour. The resulting solution was cooled down to 20° C., pH was adjusted to 7.5 and passed through a Millipore® filter of 0.5 μm pore diameter. The dye quantity was adjusted in a way that the density of the printed images was the same for all dyes.
(§2) 30 g of gelatin with a high isoelectric point (type St 70,810, available from Deutsche Gelatinefabriken, Eberbach, Germany) were dissolved in 360 ml of deionised water. 1 g of a surfactant (Olin 10G, available from Olin Corporation, Norwalk, USA) were added to this solution. Immediately before coating 6.6 g of a solution of 2-(4-dimethyl-carbamoyl-pyridino)-ethanesulfonate (3%) were added and pH was adjusted to 6.5. 100 g/m^2 of this solution was then coated onto a resin coated paper support using a bar coater. The recording medium prepared in this way was dried for 12 hours.
(§3) The inks were then jetted onto this recording medium with an HP560 ink jet printer from Hewlett-Packard. The properties of the printed samples were evaluated later on.
The printed samples were irradiated in an Atlas Ci35A Weather-O-Meter® with a r 6500 W Xenon lamp until a total illumination of 20 kJoule/cm^2 was reached. The density loss was measured with an X-Rite® densitometer. It is expressed as % loss of initial density.

[2] = Absorption maximum in water
Excerpt: The absorption maxima and the results of the tests (B) to (D) are listed in Table 6 for the dyes of the invention and in Table 7 for the dyes that are state of the art.

[3] = Dye solubility in deionised water; settings: for Solubility: deionised water, stirred 1 hour at 50° C., cooled to 20° C., Table 5; for solubility compared with previously known dyes 24 and 26: in words
Procedure: The dye was dispersed in deionised water and this dispersion was stirred for 1 hour at 50° C. Then the mixture was cooled down to 20° C., centrifuged and filtered. Dye solubility was calculated a) from visible spectral data of the filtered solution or b) based on the dried filter residue.

[4] = Color co-ordinates (L*a*b*) of printed samples
Procedure: as §1, §2, §3
L*a*b*-values were measured on printed samples using a Gretag SPM 100 spectrometer, available from Gretag AG, Regensdorf, Switzerland.
Black dyes show a neutral hue if the values of a* and b*out of the L*a*b* color co-ordinates are zero.

light fastness ([1]; printed samples, in words)	Density loss in % ([1]; Table 6)	HD max in water ([2]; Table 6)	Solubility [3]	solubility compared with previously known dyes 24 and 26 [3]	L*a*b*-value: L* ([4]; Table 6)	L*a*b*-value: a* ([4]; Table 6)	L*a*b*-value: b* ([4]; Table 6)	neutral black (color co-ordinates) ([4]; in words)	Density loss in % ([1]; state of the art dyes, Table 7)	HD max in water ([2]; state of the art dyes, Table 7)	L*a*b*-value: L* ([4]; state of the art dyes, Table 7)	L*a*b*-value: a* ([4]; state of the art dyes, Table 7)	L*a*b*-value: b* ([4]; state of the art dyes, Table 7)	SMILES
excellent light fastness	14%	577 nm	> 20 g per 100 ml	considerably higher solubility	17.3	4.0	-6.6	neutral blacks						O=S(=O)(O)CCNc1ccc2cc(S(=O)(=O)O)c(N=Nc3ccc(N=Nc4ccc(CS(=O)(=O)O)cc4)c4ccc(S(=O)(=O)O)cc34)c(O)c2c1 [Compound 8]
	1%	580 nm	> 20 g per 100 ml	considerably higher solubility	3.8	3.4	0.5							O=C(O)c1cc(N=Nc2ccc(N=Nc3c(S(=O)(=O)O)cc4ccc(NCCS(=O)(=O)O)cc4c3O)c3cc(S(=O)(=O)O)ccc23)cc(C(=O)O)c1 [Compound 16]
			17 g per 100 ml						8%	568 nm	14.7	14.4	-14.6	O=C(O)CCNc1ccc2cc(S(=O)(=O)O)c(N=Nc3ccc(N=Nc4cccc(C(=O)O)c4)c4ccc(S(=O)(=O)O)cc34)c(O)c2c1 [Compound 26, reference compound]
